Literature values, collected in patent US20070053892A1, “Methods and kits for co-administration of nutritional supplements” (Everett Laboratories, Inc., priority 2005, published 2007).

Assays:
[1] = patients with ischemic heart disease
[2] = patients with hypertension
[3] = patients with cardiomyopathy
[4] = patients with congestive heart failure

COC1=C(OC)C(=O)C(C/C=C(\C)CC/C=C(\C)CC/C=C(\C)CC/C=C(\C)CC/C=C(\C)CC/C=C(\C)CC/C=C(\C)CC/C=C(\C)CC/C=C(\C)CCC=C(C)C)=C(C)C1=O [CoQ10, coenzyme Q10]
magnitude and rate of clinical improvement [1]: enhances both the magnitude and rate of clinical improvement | blood pressure [2]: significantly reduce blood pressure | cardiac function including ejection fraction and cardiac output [3]: significant improvement in cardiac function | myocardial metabolic function, blood pressure, myocardial thickness [4]: improve myocardial metabolic function, reduce blood pressure, and reduce myocardial thickness
